Results published in patent US20110269777A1, “METHODS AND COMPOSITIONS FOR TREATING SCHIZOPHRENIA USING ANTIPSYCHOTIC COMBINATION THERAPY” (Medivation Neurology, Inc., priority 2007, published 2011).
Where a name gives a salt, the structure may show the parent alone.

Key:
[1] = tested on: NMDA-induced currents in cultured rat hippocampus neurons (NMDA receptors); test: NMDA-induced current blocking, patch clamp, whole cell configuration; format: cell-based; conditions: for Effect on the blocking effect of MK-801 on NMDA-induced currents: preliminary application before MK-801
Experimental: Experiments were carried out by the patch clamp method on freshly isolated neurons of a rat brain cortex or on cultured rat hippocampus neurons. Neurons for cultivation were obtained from the hippocampus of neonatal rats (1-2 days) by the method of trypsinization followed by pipetting. Cells suspended in culture medium were placed in 3 mL quantities into the wells of a 6-well planchette (Nunc) or into Petri dishes, in which glasses coated with poly-L-lysine had first been placed. The cell concentration as a rule was […]. The culture medium consisted of Eagle's minimum medium and a DME/F12 medium (1:1) supplemented with 10% calf serum, 2 mM glutamine, 50 μg/mL gentamycin, 15 mM glucose and 20 mM KCl, with the pH brought to between 7.0 and 7.4 using NaHCO3. Planchettes containing cultures were placed in a CO2— incubator at 37° C. and 100% humidity. Cytosine arabinoside (10-20 μL) was added on the second to third day of cultivation. After 6-7 days of cultivation 1 mg/mL glucose was added to the medium, or the medium was exchanged, depending on the following experiment. The cultured hippocampus neurons were placed in a 0.4 mL working chamber. The working solution had the following composition: 150.0 mM NaCl, 5.0 mM KCl, 2.6 mM CaCl2, 2.0 mM MgSO4×7H2O, 10 mM HEPES, and 15.0 mM Glucose, at pH 7.36.
Transmembrane currents produced by application of NMDA were registered by the patch clamp electrophysiological method in the whole cell configuration. Application of substances was done by the method of rapid superfusion. Currents were registered with the aid of borosilicate microelectrodes (resistance […]) filled with the following composition: 100.0 mM KCl, 11.0 mM EGTA, 1.0 mM CaCl2, 1.0 mM MgCl2, 10.0 mM HEPES, and 5.0 mM ATP, at pH 7.2. An EPC-9 instrument (HEKA, Germany) was used for registration. Currents were recorded on the hard disk of a Pentium-IV PC using the pulse program, which is also purchased from HEKA. The results were analyzed with the aid of the Pulsefit program (HEKA).

[2] = tested on: patients with schizophrenia, paranoid type; test: Double-blind placebo-controlled clinical study, efficacy assessment scales (PANSS, CGI, Calgary, NSA-16); format: in vivo, human
Experimental: (§1) A double-blind, placebo-controlled clinical study was conducted to evaluate the effect of a combination therapy of risperidone (3-[2-[4-(6-fluoro-1,2-benzoxazol-3-yl)piperidin-1-yl]ethyl]-2-methyl-6,7,8,9-tetrahydropyrido[2,1-b]pyrimidin-4-one) plus dimebon (2,8-dimethyl-5-(2-(6-methyl-3-pyridyl)ethyl)-2,3,4,5-tetrahydro-1H-pyrido[4,3-b]indole dihydrochloride) for treatment of chronic schizophrenia compared to risperidone treatment alone. The treatment trial was designed as randomized placebo-controlled, double-blind study of 60 patients meeting diagnostic criteria for schizophrenia, paranoid type, and episodic course (DSM IV-295.30).
(§2) The study included 60 patients with a diagnosis of continuous paranoid and episodic-progressive schizophrenia with a current condition of drug remission or development of drug remission, without regard to the syndrome determining the current mental status. […] According to DSM-IV, these patients met criteria 295.30, schizophrenia, paranoid type, […]. Patients were selected to participate in the study according to the following criteria: (1) inclusion criteria: male patients, 18 year old or older, schizophrenia, paranoid type, and episodic course in remission or partial remission and responders or partial responders to risperidone; and (2) exclusion criteria: excitement, impulsiveness or aggressive behavior (more than moderate), non-responders to antipsychotic treatment including risperidone, having mental disorders other than (or in addition to) schizophrenia, necessity of other treatment and severe acute somatic diseases or decompensated chronic somatic diseases.
(§3) In the first stage of the study (2 weeks), patients who provide an informed consent for participation in the study and who met the inclusion/exclusion criteria were switched to monotherapy with risperidone (dose adjustment of risperidone in range from 2 mg to 6 mg per day), and the clinical stability of the patients was evaluated weekly over two weeks. […] Again, clinical stability of the study participants was evaluated weekly for four weeks. In the third stage (8 weeks), after 4 weeks of monotherapy with risperidone, patients were divided into two groups. Group 1 received dimebon, (20 mg three times daily, n=23) in addition to risperidone therapy. Group 2 received a placebo (n=24) in addition to risperidone therapy. Again, clinical stability of the study participants was evaluated weekly for eight weeks. In the fourth stage (follow-up period), 6 months after completion of therapy within the framework of the protocol, the stability of the characteristics achieved in the course of the study were evaluated. In the fourth stage, clinical stability of the study participants was evaluated monthly for six months.
(§4) The study was conducted as follows. The patients were evaluated clinically and by psychopathological (descriptive) methods during every visit. The patients were evaluated according to the psychometric method at the end of the first period, at the end of the second period, after 4 weeks of the third period and at the end of the third period using the following criteria (A) Efficacy assessment scales such as (1) Positive and Negative Syndrome Scale (PANSS scale; Kay, S. R., Fiszbein, A., and Opler, L. A., Schizophrenia Bulletin 13(2):261-76 (1987)); (2) Clinical Global Impression-Severity (CGI-S) and Clinical Global Impression-Improvement (CGI-I); (3) Calgary depression rating scale (Addington, D., Addington, J., and Maticka-Tyndale E., British J. Psych. Suppl. 22:39-44 (1993)); and (4) Negative Symptoms Assessment-16 (NSA-16) (Alphs, L., Summerfelt, A., Lann, H., and Muller, R. J., Psychopharm. Bull. 25:159-163 (1989)); and (B) Safety scales such as (1) the Barnes Akathisia Rating Scale (BARS) (Barnes, T. R., British J. Psych. 154:672-676 (1989)); and (2) the Simpson-Angus Rating Scale (SARS) (Simpson, G. N. and Angus, J. W. S., Acta Psych. Scand. 212(suppl. 44):11-19 (1970)). […]

[3] = tested on: patients with schizophrenia, paranoid type; test: Double-blind placebo-controlled clinical study, neurocognitive assessment tests; format: in vivo, human
Experimental: as §1, §2, §3, §4

[4] = tested on: patients with schizophrenia, paranoid type
[5] = end (8 weeks dimebon 20 mg three times daily + risperidone)
[6] = start (before adding dimebon to risperidone)
[7] = end (8 weeks dimebon + risperidone)

N[C@H](CCCP(=O)(O)O)C(=O)O [D-AP5, D-2-amino-5-phosphonovaleric acid, reference compound]
Effect on the blocking effect of MK-801 on NMDA-induced currents [1]: did not decrease

Cc1ccc2c(c1)c1c(n2CCc2ccc(C)nc2)CCN(C)C1 [Dimebon, 2,8-dimethyl-5-[2-(6-methylpyridyl-3)ethyl]-2,3,4,5-tetrahydro-1H-pyrido[4,3-b]indole dihydrochloride]
Blockade of NMDA-induced currents (%) ([1]; at 10 μM, cultured rat hippocampus neurons): By 50-70% at 10 μM
IC50 ([1]; average, read-out: IC50, blocking of currents caused by application of NMDA): 7.7 ± 1.9 µM
Effect on the blocking effect of MK-801 on NMDA-induced currents [1]: capable of reducing
total PANSS score relative to placebo ([2]; adjunctive dimebon on background risperidone therapy): significant reduction
% improvement [2, 5]: 8.14 ± 49.4%
CGI I [2, 5]: 2.7 ± 1.0
CGI-S [2, 5]: 3.9 ± 1.2
Calgary scale of depression [2, 5]: 8.1 ± 9.97
NSA-16 [2, 5]: 48.5 ± 22.7
PANSS general psychopathol [2, 5]: 31.4 ± 11.1
PANSS negative [2, 5]: 18.48 ± 7.01
PANSS positive [2, 5]: 12.0 ± 5.9
PANSS total [2, 5]: 61.9 ± 22.2
CGI-S [2, 6]: 4.3 ± 1
Calgary scale of depression [2, 6]: 11.6 ± 11.6
NSA-16 [2, 6]: 64.65 ± 22.8
PANSS general psychopathol [2, 6]: 39.1 ± 8.1
PANSS negative [2, 6]: 22.5 ± 5.15
PANSS positive [2, 6]: 16.9 ± 4.6
PANSS total [2, 6]: 78.5 ± 14.1
verbal associative memory, psychomotor speed, visual-spatial memory and number aspects of executive functioning ([3]; dimebon group, start to end of 8 weeks on risperidone background): significant improvement
Benton test: sum error [3, 7]: 6.5 ± 4.4
Benton test: sum reconst [3, 7]: 6 ± 2.21
Bourdohn test: attention concentration [3, 7]: 0.986 ± 0.013
Bourdohn test: attention productivity [3, 7]: 497 ± 170
Bourdohn test: attention stability [3, 7]: 0.009 ± 0.006
CAT: correct answer account [3, 7]: 37 ± 8.2
CAT: reaction time [3, 7]: 630.17 ± 195.55
Schulte tables: sum time [3, 7]: 166 ± 64
Text 1 Reconstruction 1. quantity of elements [3, 7]: 7 ± 2.6
Text 2 Reconstruction 1 quantity of elements [3, 7]: 9 ± 3.0
Tower of London - correct score [3, 7]: 3.26
Tower of London - execution time [3, 7]: 234 ± 115
Tower of London - sum total time > 60 sec [3, 7]: 0 ± 1.5
Tower of London -move score [3, 7]: 34 ± 19
Wechsler memory scale, subtest V: series A [3, 7]: 6 ± 0.9
Wechsler memory scale, subtest V: sum A and B [3, 7]: 9.5 ± 2.7
Wechsler memory scale, subtest V: sum A and B, (T-scores) [3, 7]: 8 ± 2.3
Wechsler memory scale, subtest VII: sum comlex [3, 7]: 4.5 ± 3.34
Wechsler memory scale, subtest VII: sum simple [3, 7]: 17 ± 2.9
Wechsler memory scale, subtestV: series B [3, 7]: 4 ± 0.9
Wechsler test, subtest VII: Symbol coding [3, 7]: 6 ± 1.4
Wisconsin CS test - conceptual level responses, T score [3, 7]: 44 ± 6.7
Wisconsin CS test - nonperseverative errors, T score [3, 7]: 43 ± 9.6
Wisconsin CS test - perseverative responses, T score [3, 7]: 45 ± 5.53
Wisconsin CS test - total error - T score [3, 7]: 43 ± 8.1
Wisconsin CS test perseverative errors, T score [3, 7]: 44 ± 5.6
Wisconsin CS test: categories completed [3, 7]: 5 ± 1.9
Wisconsin CS test: total correct responses [3, 7]: 78 ± 14
Benton test: sum error [3, 6]: 8 ± 3.8
Benton test: sum reconst [3, 6]: 5 ± 1.7
Bourdohn test: attention concentration [3, 6]: 0.975 ± 0.03
Bourdohn test: attention productivity [3, 6]: 399 ± 123
Bourdohn test: attention stability [3, 6]: 0.01 ± 0.01
CAT: correct answer account [3, 6]: 35 ± 8.5
CAT: reaction time [3, 6]: 606.74±
Schulte tables: sum time [3, 6]: 160 ± 105
Text 1 Reconstruction 1. quantity of elements [3, 6]: 5 ± 2.3
Text 2 Reconstruction 1 quantity of elements [3, 6]: 7 ± 2.7
Tower of London - correct score [3, 6]: 2 ± 1.1
Tower of London - execution time [3, 6]: 298 ± 227
Tower of London - sum total time > 60 sec [3, 6]: 1.5 ± 3
Tower of London -move score [3, 6]: 46 ± 25
Wechsler memory scale, subtest V: series A [3, 6]: 6 ± 1
Wechsler memory scale, subtest V: sum A and B [3, 6]: 10 ± 1.7
Wechsler memory scale, subtest V: sum A and B, (T-scores) [3, 6]: 9 ± 2.3
Wechsler memory scale, subtest VII: sum comlex [3, 6]: 3 ± 2.7
Wechsler memory scale, subtest VII: sum simple [3, 6]: 14 ± 4
Wechsler memory scale, subtestV: series B [3, 6]: 4 ± 1.2
Wechsler test, subtest VII: Symbol coding [3, 6]: 5 ± 1.8
Wisconsin CS test - conceptual level responses, T score [3, 6]: 43 ± 5.9
Wisconsin CS test - nonperseverative errors, T score [3, 6]: 41 ± 7.9
Wisconsin CS test - perseverative responses, T score [3, 6]: 43 ± 8.38
Wisconsin CS test - total error - T score [3, 6]: 43 ± 6.8
Wisconsin CS test perseverative errors, T score [3, 6]: 43 ± 8.21
Wisconsin CS test: categories completed [3, 6]: 4 ± 1.7
Wisconsin CS test: total correct responses [3, 6]: 79 ± 16
safety issues ([4]; dimebon 20 mg three times daily + risperidone, 8 weeks): no safety issues
BARS and SARS safety scales, difference between study groups ([4]; dimebon group vs placebo group): no differences
